Assay results taken from patent US20180084782A1, “METHOD OF CONTROL OF STINKBUGS” (Syngenta Participations AG, priority 2015, published 2018).
Read-outs that look alike come from different tables or passages of the source.

Tested on: Euschistus heros (neotropical brown stink bug)
Assay: Insecticidal activity against Euschistus heros: contact/feeding activity on sprayed soybean plants
Format: in vivo
Conditions: 120 h
Experimental: Insecticidal activity against Euschistus heros (neotropical brown stink bug): contact/feeding activity of compounds 1 and 3 according to the invention and 2 and 4 as comparison:
Two week old soybean plants were sprayed in a turn table spray chamber with the diluted spray solutions. After drying, two soybean seeds were added and plants were infested with ten N-2 nymphs of the neotropical brown stink bug Euschistus heros in plastic test boxes. Boxes were incubated in a climate chamber at 25° C. and 60% relative humidity. Evaluation is done 5 days after infestation on mortality and growth effect.

[1] = 0.2 ppm spray, N-2 nymphs on soybean plants, evaluation 5 days after infestation, read-out: Mortality (%)
[2] = 0.8 ppm spray, N-2 nymphs on soybean plants, evaluation 5 days after infestation, read-out: Mortality (%)
[3] = 3 ppm spray, N-2 nymphs on soybean plants, evaluation 5 days after infestation, read-out: Mortality (%)

| Compound | mortality at 0.0125 ppm | mortality at 0.05 ppm | mortality at 0.2 ppm | mortality at 0.8 ppm | mortality at 3 ppm | mortality at 0.0125 ppm (0.0125 ppm spray, N-2 nymphs on soybean plants, evaluation 5 days after infestation, read-out: Mortality (%)) | mortality at 0.05 ppm (0.05 ppm spray, N-2 nymphs on soybean plants, evaluation 5 days after infestation, read-out: Mortality (%)) | mortality at 0.2 ppm [1] | mortality at 0.8 ppm [2] | mortality at 3 ppm [3] |
| --- | --- | --- | --- | --- | --- | --- | --- | --- | --- | --- |
| Cn1nc(C(F)(F)C(F)(F)F)c(C(F)(F)F)c1-n1cc(-c2ccc(Cl)c(C(=O)NC3CC3)c2)cn1 [Compound 1] | 35% | 50% | 95% | 100% | 100% |  |  |  |  |  |
| Cn1nc(C(F)(F)C(F)(F)F)c(C(F)(F)F)c1-n1cc(-c2ccc(Cl)c(C(=O)NC3CC3)c2)nn1 [Compound 2, reference compound] |  |  |  |  |  | 0% | 10% | 20% | 35% | 100% |
| Cn1nc(C(F)(F)C(F)(F)F)c(C(F)(F)F)c1-n1cc(-c2ccc(Cl)c(C(=O)NC3(C#N)CC3)c2)cn1 [Compound 3] | 15% | 35% | 95% | 95% | 100% |  |  |  |  |  |
| Cn1nc(C(F)(F)C(F)(F)F)c(C(F)(F)F)c1-n1cc(-c2ccc(Cl)c(C(=O)NC3(C#N)CC3)c2)nn1 [Compound 4, reference compound] |  |  |  |  |  |  |  | 0% | 20% | 95% |
